Measurements: patent publication US20170136010A1, “ORAL SOLID PREPARATION COMPRISING ARIPIPRAZOLE AND METHOD FOR PRODUCING ORAL SOLID PREPARATION COMPRISING ARIPIPRAZOLE” (OTSUKA PHARMACEUTICAL CO., LTD, priority 2013, published 2017)

What was measured:
Assay type in all cases: physicochemical
[1] = Hygroscopic test of finely milled powder, water content by Karl Fischer method; conditions: for Water content level (wt %), hygroscopic test of finely milled aripiprazole crystal, 24 hours: 60° C., humidity 100%
Description: The finely milled powder obtained above was evaluated by a hygroscopic test according to the following method.
About 1 g of milled powder was weighed in a weighing bottle with a diameter of 5 cm, allowed to stand in water/desiccator in which the temperature and humidity were respectively set to 60° C. and 100%, and then allowed to stand in MgCl2.6H2O saturated salt solution/desiccator having a room temperature and humidity of about 30% for 24 hours, Thereafter, the water content was measured. The water content was measured according to the Karl Fischer method by accurately measuring 0.1 g of a sample.

[2] = Mean particle size by laser diffraction scattering particle size distribution analyzer; conditions: volume mean diameter, dry
Description: The term “mean particle size” refers to volume mean diameter as calculated from the particle size distribution measured by a laser scattering particle size distribution analyzer analyzer.
The particle size of the resulting finely milled powder of highly hygroscopic aripiprazole anhydrous crystal was measured using Dry Unit 2000, which was a laser diffraction scattering particle size distribution analyzer (Laser Micron Sizer (LMS-2000e)), and the mean particle size was calculated from the obtained measurement results. […] The measurement conditions using a laser diffraction scattering particle size distribution analyzer were as follows: Particle refractive index: 1.750, imaginary part: 0.1, and dispersive pressure: 0.15 MPa.

[3] = Hygroscopic test of aripiprazole anhydrous crystal, water content by Karl Fischer coulometric titration; conditions: for Water content level (wt %) after humidification: after 24 hours at 60° C. in desiccator including water; for Water content level (wt %) before humidification: before hygroscopic test
Description: About 1 g of aripiprazole obtained in the Synthesis Example was weighed in each of the weighing bottles having a diameter of about 5 cm. Each of the bottles was sealed with Kimwipe, and allowed to stand in a desiccator including water. The desiccator was placed in an oven at 60° C., and allowed to stand for 24 hours.
The weighing bottles were removed from the desiccator, and allowed to stand for 16 hours or more in a desiccator (room temperature/about 30% RH) including an MgCl2/6H2O saturated salt solution, thereby removing attached excess water. The water contents of the samples before and after the hygroscopic test were measured according to the following test procedure.
0.1 g of the aripiprazole obtained in the Synthesis Example and 0.1 g of the aripiprazole obtained after the hygroscopic test were accurately weighed. Using a moisture meter (CA-200) produced by Mitsubishi Chemical Analytech Co., Ltd., a test was performed according to the coulometric titration method, which is a water content measurement method (Karl Fischer method).

| SMILES | Water content level (wt %), hygroscopic test of finely milled aripiprazole crystal, 0 hour [1] | Water content level (wt %), hygroscopic test of finely milled aripiprazole crystal, 24 hours [1] | Mean particle size [2] | Water content level (wt %) after humidification [3] | Water content level (wt %) before humidification [3] |
| --- | --- | --- | --- | --- | --- |
| O=C1CCc2ccc(OCCCCN3CCN(c4cccc(Cl)c4Cl)CC3)cc2N1 [compound 4, 7-{4-[4-(2,3-dichlorophenyl)-1-piperazinyl]butoxy}-3,4-dihydrocarbostyril] | 0.29 wt % | 3.90 wt % | 9.6 μm | – | – |
| O=C1CCc2ccc(OCCCCN3CCN(c4cccc(Cl)c4Cl)CC3)cc2N1 [compound 2, 7-{4-[4-(2,3-dichlorophenyl)-1-piperazinyl]butoxy}-3,4-dihydrocarbostyril] | 0.21 wt % | 3.69 wt % | 5.1 μm | – | – |
| O=C1CCc2ccc(OCCCCN3CCN(c4cccc(Cl)c4Cl)CC3)cc2N1 [Reference Example 1, 7-{4-[4-(2,3-dichlorophenyl)-1-piperazinyl]butoxy}-3,4-dihydrocarbostyril] | 0.10 wt % | 3.37 wt % | 2.6 μm | – | – |
| O=C1CCc2ccc(OCCCCN3CCN(c4cccc(Cl)c4Cl)CC3)cc2N1 [Lot No. 1, 7-{4-[4-(2,3-dichlorophenyl)-1-piperazinyl]butoxy}-3,4-dihydrocarbostyril] | – | – | – | 0.809 wt % | 0.003 wt % |
| O=C1CCc2ccc(OCCCCN3CCN(c4cccc(Cl)c4Cl)CC3)cc2N1 [compound 3, 7-{4-[4-(2,3-dichlorophenyl)-1-piperazinyl]butoxy}-3,4-dihydrocarbostyril] | 0.24 wt % | 3.97 wt % | 8.9 μm | – | – |
| O=C1CCc2ccc(OCCCCN3CCN(c4cccc(Cl)c4Cl)CC3)cc2N1 [Lot No. 2, 7-{4-[4-(2,3-dichlorophenyl)-1-piperazinyl]butoxy}-3,4-dihydrocarbostyril] | – | – | – | 2.759 wt % | 0.032 wt % |
